Measurements published in patent US20250074913A1, “PYRAZOLE DERIVATIVES AS STING AGONISTS” (Hoffmann-La Roche Inc., priority 2022, published 2025).

Tested on: interferon regulatory factor (IRF) pathway in THP1-Dual™ cells
Test: THP1-Dual reporter gene assay (Agonist_THP1_EC50)
Type: cell-based
Settings: Homo sapiens, 20-24 hrs compound treatment, Lucia luciferase (IRF) readout
Text: This is the cellular reporter assay to evaluate compounds' agonism to interferon regulatory factor (IRF) pathway in THP1-Dual™ cells (InvivoGen, cat number thpd-nfis). THP1-Dual™ cells were derived from the human THP-1 monocyte cell line by stable integration lucia luciferase gene, a new secreted luciferase reporter gene, under the control of an ISG54 (interferon-stimulated gene) minimal promoter in conjunction with five interferon (IFN)-stimulated response elements. As a result, THP1-Dual™ cells allow the study of the IRF pathway, by assessing the activity of Lucia luciferase. Lucia luciferase protein is readily measurable in the cell culture supernatant when using QUANTI-Luc™ (InvivoGen, cat: rep-qlcg-500).
After 20-24 hrs compound treatment in THP1-Dual cells, the compounds' agonism to IRF pathway and cell toxicity were tested by measuring luminescence and OD 450 on an Envision plate reader.
On the day of experiment, 30 μL of test medium (RPMI 1640, 2 mM L-glutamine, 25 mM HEPES, […] heat-inactivated fetal bovine serum) was dispensed in a white 384-well plate (Grenier, cat: 781098) containing the serially diluted compounds (final 1% DMSO) transferred by the Echo550 machine. Then 30 μL of cell suspension (˜33,000 cells, 1.1×10^6 cells/mL) per well was added immediately by thermo multidrop combi dispenser for incubation 20-24 h at 37° C., […]. At the end of the incubation, 10 μL of cellular supernatant was transferred to proxiplate 384-plus plate for IRF detection, and then 10 μL of QUANTI-Luc™ Gold solution was added to the plate that proceeded with the measurement immediately. To detect cell viability, 30 μL of the CCK-8 working solution (Dojindo Molecular Technologies, cat: CK04-20) was added to the cell plate, which was Incubated for 2 hrs in the incubator to measure the absorbance at 450 nm using Envision.

Row | Structure (SMILES) | EC50
1 | CCn1nc(C)c(O)c1-c1n[nH]c(-c2nc(C(N)=O)n3cc(C)ncc23)n1 [Example 1, 1-[3-(2-ethyl-4-hydroxy-5-methyl-pyrazol-3-yl)-1H-1,2,4-triazol-5-yl]-6-methyl-imidazo[1,5-a]pyrazine-3-carboxamide] | 202 nM
2 | CCn1nc(C)c(O)c1-c1n[nH]c(-c2cc(C(N)=O)n3cc(C)ncc23)n1 [Example 3, 8-[3-(2-ethyl-4-hydroxy-5-methyl-pyrazol-3-yl)-1H-1,2,4-triazol-5-yl]-3-methyl-pyrrolo[1,2-a]pyrazine-6-carboxamide] | 606 nM
3 | CCn1nc(C)c(O)c1-c1nc(-c2nc(C(N)=O)n3cc(C)ncc23)co1 [Example 9, 1-[2-(2-ethyl-4-hydroxy-5-methyl-pyrazol-3-yl)oxazol-4-yl]-6-methyl-imidazo[1,5-a]pyrazine-3-carboxamide] | 829 nM
4 | CCn1nc(C)c(O)c1-c1nc(-c2nc(C(N)=O)cc3c2cnn3C)c(C(F)F)o1 [Example 10, 4-[5-(difluoromethyl)-2-(2-ethyl-4-hydroxy-5-methyl-pyrazol-3-yl)oxazol-4-yl]-1-methyl-pyrazolo[4,3-c]pyridine-6-carboxamide] | 419 nM
5 | CCn1nc(C)c(O)c1-c1n[nH]c(-c2nc(C(N)=O)n3cc(Cl)ncc23)n1 [Example 18, 6-chloro-1-[3-(2-ethyl-4-hydroxy-5-methyl-pyrazol-3-yl)-1H-1,2,4-triazol-5-yl]imidazo[1,5-a]pyrazine-3-carboxamide] | 548 nM
6 | CCn1nc(C)c(O)c1-c1n[nH]c(-c2nc(C(N)=O)n3cc(C)ccc23)n1 [Example 19, 1-[3-(2-ethyl-4-hydroxy-5-methyl-pyrazol-3-yl)-1H-1,2,4-triazol-5-yl]-6-methyl-imidazo[1,5-a]pyridine-3-carboxamide] | 408 nM
7 | CCn1nc(C)c(O)c1-c1n[nH]c(-c2cc(C(N)=O)c3cc(C)ncn23)n1 [Example 20, 7-[3-(2-ethyl-4-hydroxy-5-methyl-pyrazol-3-yl)-1H-1,2,4-triazol-5-yl]-3-methyl-pyrrolo[1,2-c]pyrimidine-5-carboxamide] | 283 nM
8 | CCn1nc(C)c(O)c1-c1nc(-n2nc(C(N)=O)c3cc(C)ncc32)co1 [Example 21, 1-[2-(2-ethyl-4-hydroxy-5-methyl-pyrazol-3-yl)oxazol-4-yl]-5-methyl-pyrazolo[3,4-c]pyridine-3-carboxamide] | 141 nM
9 | CCn1nc(C)c(O)c1-c1n[nH]c(-n2nc(C(N)=O)c3cc(C)ncc32)n1 [Example 22, 1-[3-(2-ethyl-4-hydroxy-5-methyl-pyrazol-3-yl)-1H-1,2,4-triazol-5-yl]-5-methyl-pyrazolo[3,4-c]pyridine-3-carboxamide] | 82 nM
10 | Cc1nn(CCn2ccnc2)c(-c2n[nH]c(-c3nc(C(N)=O)cc4c3cnn4C)n2)c1O [Example 23, 4-[3-[4-hydroxy-2-(2-imidazol-1-ylethyl)-5-methyl-pyrazol-3-yl]-1H-1,2,4-triazol-5-yl]-1-methyl-pyrazolo[4,3-c]pyridine-6-carboxamide] | 275 nM
11 | Cc1nn(CCCC#N)c(-c2n[nH]c(-c3nc(C(N)=O)cc4c3cnn4C)n2)c1O [Example 24, 4-[3-[2-(3-cyanopropyl)-4-hydroxy-5-methyl-pyrazol-3-yl]-1H-1,2,4-triazol-5-yl]-1-methyl-pyrazolo[4,3-c]pyridine-6-carboxamide] | 127 nM
12 | Cc1nn(CCC#N)c(-c2n[nH]c(-c3nc(C(N)=O)cc4c3cnn4C)n2)c1O [Example 25, 4-[3-[2-(2-cyanoethyl)-4-hydroxy-5-methyl-pyrazol-3-yl]-1H-1,2,4-triazol-5-yl]-1-methyl-pyrazolo[4,3-c]pyridine-6-carboxamide] | 50 nM
13 | CCn1nc(C)c(O)c1-c1n[nH]c(-c2nc(C(N)=O)n3cc(C(F)F)ncc23)n1 [Example 26, 6-(difluoromethyl)-1-[3-(2-ethyl-4-hydroxy-5-methyl-pyrazol-3-yl)-1H-1,2,4-triazol-5-yl]imidazo[1,5-a]pyrazine-3-carboxamide] | 340 nM
14 | CCn1nc(C)c(O)c1-c1noc(-c2cc(C(N)=O)c3cc(C)ncn23)n1 [Example 27, 7-[3-(2-ethyl-4-hydroxy-5-methyl-pyrazol-3-yl)-1,2,4-oxadiazol-5-yl]-3-methyl-pyrrolo[1,2-c]pyrimidine-5-carboxamide] | 292 nM
15 | CCn1nc(C)c(O)c1-c1nc(-c2c(F)c(C(N)=O)n3cc(C)ncc23)co1 [Example 28, 8-[2-(2-ethyl-4-hydroxy-5-methyl-pyrazol-3-yl)oxazol-4-yl]-7-fluoro-3-methyl-pyrrolo[1,2-a]pyrazine-6-carboxamide] | 134 nM
16 | CCn1nc(C)c(O)c1-c1nc(-n2cc(C(N)=O)c3cc(C)ncc32)co1 [Example 29, 1-[2-(2-ethyl-4-hydroxy-5-methyl-pyrazol-3-yl)oxazol-4-yl]-5-methyl-pyrrolo[2,3-c]pyridine-3-carboxamide] | 618 nM
17 | Cc1cn2c(C(N)=O)c(F)c(-c3nc(-c4c(O)c(C)nn4CCC#N)n[nH]3)c2cn1 [Example 30, 8-[3-[2-(2-cyanoethyl)-4-hydroxy-5-methyl-pyrazol-3-yl]-1H-1,2,4-triazol-5-yl]-7-fluoro-3-methyl-pyrrolo[1,2-a]pyrazine-6-carboxamide] | 321 nM
18 | Cc1cc2c(C(N)=O)nn(-c3nc(-c4c(O)c(C)nn4CC4CC4)n[nH]3)c2cn1 [Example 32, 1-[3-[2-(cyclopropylmethyl)-4-hydroxy-5-methyl-pyrazol-3-yl]-1H-1,2,4-triazol-5-yl]-5-methyl-pyrazolo[3,4-c]pyridine-3-carboxamide] | 36 nM
19 | Cc1cc2c(C(N)=O)nn(-c3nc(-c4c(O)c(C)nn4C4CC4)n[nH]3)c2cn1 [Example 33, 1-[3-(2-cyclopropyl-4-hydroxy-5-methyl-pyrazol-3-yl)-1H-1,2,4-triazol-5-yl]-5-methyl-pyrazolo[3,4-c]pyridine-3-carboxamide] | 135 nM
20 | Cc1nn(CCn2nccn2)c(-c2n[nH]c(-c3nc(C(N)=O)cc4c3cnn4C)n2)c1O [Example 35, 4-[3-[4-hydroxy-5-methyl-2-[2-(triazol-2-yl)ethyl]pyrazol-3-yl]-1H-1,2,4-triazol-5-yl]-1-methyl-pyrazolo[4,3-c]pyridine-6-carboxamide] | 79 nM
21 | Cc1nn(CCn2ccnn2)c(-c2n[nH]c(-c3nc(C(N)=O)cc4c3cnn4C)n2)c1O [Example 36, 4-[3-[4-hydroxy-5-methyl-2-[2-(triazol-1-yl)ethyl]pyrazol-3-yl]-1H-1,2,4-triazol-5-yl]-1-methyl-pyrazolo[4,3-c]pyridine-6-carboxamide] | 240 nM
22 | Cc1nn(CCC(F)F)c(-c2n[nH]c(-c3nc(C(N)=O)cc4c3cnn4C)n2)c1O [Example 37, 4-[3-[2-(3,3-difluoropropyl)-4-hydroxy-5-methyl-pyrazol-3-yl]-1H-1,2,4-triazol-5-yl]-1-methyl-pyrazolo[4,3-c]pyridine-6-carboxamide] | 14 nM
23 | Cc1nn(CCn2cncn2)c(-c2n[nH]c(-c3nc(C(N)=O)cc4c3cnn4C)n2)c1O [Example 39, 4-[3-[4-hydroxy-5-methyl-2-[2-(1,2,4-triazol-1-yl)ethyl]pyrazol-3-yl]-1H-1,2,4-triazol-5-yl]-1-methyl-pyrazolo[4,3-c]pyridine-6-carboxamide] | 225 nM
24 | Cc1cc2c(C(N)=O)nn(-c3nc(-c4c(O)c(C)nn4CCCF)n[nH]3)c2cn1 [Example 41, 1-[3-[2-(3-fluoropropyl)-4-hydroxy-5-methyl-pyrazol-3-yl]-1H-1,2,4-triazol-5-yl]-5-methyl-pyrazolo[3,4-c]pyridine-3-carboxamide] | 48 nM
25 | COCCn1nc(C)c(O)c1-c1n[nH]c(-n2nc(C(N)=O)c3cc(C)ncc32)n1 [Example 42, 1-[3-[4-hydroxy-2-(2-methoxyethyl)-5-methyl-pyrazol-3-yl]-1H-1,2,4-triazol-5-yl]-5-methyl-pyrazolo[3,4-c]pyridine-3-carboxamide] | 45 nM
26 | CCCCn1nc(C)c(O)c1-c1n[nH]c(-n2nc(C(N)=O)c3cc(C)ncc32)n1 [Example 43, 1-[3-(2-butyl-4-hydroxy-5-methyl-pyrazol-3-yl)-1H-1,2,4-triazol-5-yl]-5-methyl-pyrazolo[3,4-c]pyridine-3-carboxamide] | 15 nM
27 | COCCCn1nc(C)c(O)c1-c1n[nH]c(-n2nc(C(N)=O)c3cc(C)ncc32)n1 [Example 44, 1-[3-[4-hydroxy-2-(3-methoxypropyl)-5-methyl-pyrazol-3-yl]-1H-1,2,4-triazol-5-yl]-5-methyl-pyrazolo[3,4-c]pyridine-3-carboxamide] | 46 nM
28 | Cc1cc2c(C(N)=O)nn(-c3nc(-c4c(O)c(C)nn4CCc4ccncc4)n[nH]3)c2cn1 [Example 46, 1-[3-[4-hydroxy-5-methyl-2-[2-(4-pyridyl)ethyl]pyrazol-3-yl]-1H-1,2,4-triazol-5-yl]-5-methyl-pyrazolo[3,4-c]pyridine-3-carboxamide] | 97 nM
